# pIC50: −log10 of the molar value.
# Molecular target: T1, CARM1 (Homo sapiens, UniProt Q86X55)
# T1 construct: Flag-CARM1-His; made in house; host or cells: HEK 293F cells infected with recombinant baculovirus (pFastBacMam)
# T1 sequence (Q86X55 1-585 isoform Q86X55-1): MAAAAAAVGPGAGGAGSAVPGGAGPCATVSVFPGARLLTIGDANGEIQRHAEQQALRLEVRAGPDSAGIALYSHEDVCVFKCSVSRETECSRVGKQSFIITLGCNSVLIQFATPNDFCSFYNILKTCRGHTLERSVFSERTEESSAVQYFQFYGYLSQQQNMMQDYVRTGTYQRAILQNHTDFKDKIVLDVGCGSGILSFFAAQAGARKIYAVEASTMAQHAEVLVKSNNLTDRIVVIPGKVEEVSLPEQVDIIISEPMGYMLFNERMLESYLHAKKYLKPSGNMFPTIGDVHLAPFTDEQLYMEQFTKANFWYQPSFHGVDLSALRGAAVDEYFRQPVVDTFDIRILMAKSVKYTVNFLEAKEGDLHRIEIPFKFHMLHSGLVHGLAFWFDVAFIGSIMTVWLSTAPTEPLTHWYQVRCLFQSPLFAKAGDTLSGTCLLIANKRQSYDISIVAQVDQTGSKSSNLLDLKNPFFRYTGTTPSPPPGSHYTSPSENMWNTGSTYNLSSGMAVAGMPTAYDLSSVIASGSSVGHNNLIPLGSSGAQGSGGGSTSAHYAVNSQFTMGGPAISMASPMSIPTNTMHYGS
# Experiment: CARM1 enzyme assay on peptide substrate (3H-SAM Flashplate)
# Format: biochemical
# Conditions: CARM1 0.25 nM, 3H-SAM 30 nM, peptide 250 nM, 30 min preincubation; read-out: Biochem IC50
# Text: S-adenosylmethionine (SAM), S-adenosylhomocysteine (SAH), bicine, Tween20, dimethylsulfoxide (DMSO), bovine skin gelatin (BSG), sodium butyrate and Tris(2-carboxyethyl)phosphine hydrochloride solution (TCEP) were purchased from Sigma-Aldrich at the highest level of purity possible. ^3H-SAM was purchase from American Radiolabeled Chemicals with a specific activity of 80 Ci/mmol. 384-well streptavidin Flashplates were purchased from PerkinElmer.
# Peptide representative of human histone H3 residues 16-30 was synthesized with an N-terminal linker-affinity tag motif and a C-terminal amide cap by 21^St Century Biochemicals. The peptide was purified by high-performance liquid chromatography (HPLC) to greater than 95% purity and confirmed by liquid chromatography mass spectrometry (LC-MS). The sequence was Biot-Ahx-[…]-amide and contained a monomethylated arginine at position 26 (SEQ ID NO.:1).
# Human CARM1 (PRMT4) (NM_199141.1) transcript clone was amplified from an HEK 293 cDNA library, incorporating a flanking 5′ sequence encoding a FLAG tag ([…]) (SEQ ID NO.:2) fused directly to Ala 2 of CARM1 and 3′ sequence encoding a hexa His sequence ([…]) (SEQ ID NO.:3) fused directly to Ser 608. The gene sequence encoding isoform1 containing a deletion of amino acids 539-561 was amplified subsequently and subcloned into pFastBacMam (Viva Biotech). Protein Expression
# Recombinant baculovirus were generated according to Bac-to-Bac kit instructions (Life Technologies). Protein over-expression was accomplished by infecting exponentially growing HEK 293F cell culture at 1.3×10^6 cell/ml with virus (MOI=10) in the presence of 8 mM sodium butyrate. Infections were carried out at 37° C. for 48 hours, harvested by centrifugation, and stored at −80° C. for purification.
# Column was washed with 500 mM NaCl in buffer A and Flag-CARM1-His was eluted with 200 ug/ml FLAG peptide in buffer A. Pooled fractions were dialyzed in 20 mM Tris, 150 mM NaCl, 5% glycerol and 1 mM DTT, pH 7.8. The purity of recovered protein was 94.
# General Procedure for CARM1 Enzyme Assays on Peptide Substrates
# The assays were all performed in a buffer consisting of 20 mM Bicine (pH=7.6), 1 mM TCEP, 0.005% BSG, and 0.002% Tween 20, prepared on the day of use. Compounds in 100% DMSO (1 ul) were spotted into a polypropylene 384-well V-bottom plates (Greiner) using a Platemate Plus outfitted with a 384-channel head (Thermo Scientific). DMSO (1 ul) was added to Columns 11, 12, 23, 24, rows A-H for the maximum signal control and 1 ul of SAH, a known product and inhibitor of CARM1, was added to columns 11, 12, 23, 24, rows I-P for the minimum signal control. A cocktail (40 ul) containing the CARM1 enzyme was added by Multidrop Combi (Thermo-Fisher). The compounds were allowed to incubate with CARM1 for 30 min at room temperature, then a cocktail (10 ul) containing ^3H-SAM and peptide was added to initiate the reaction (final volume=51 ul). The final concentrations of the components were as follows: CARM1 was 0.25 nM, ^3H-SAM was 30 nM, peptide was 250 nM, SAH in the minimum signal control wells was 1 mM, and the DMSO concentration was 2%. The assays were stopped by the addition of non-radiolabeled SAM (10 ul) to a final concentration of 300 uM, which dilutes the ^3H-SAM to a level where its incorporation into the peptide substrate is no longer detectable. 50 ul of the reaction in the 384-well polypropylene plate was then transferred to a 384-well Flashplate and the biotinylated peptides were allowed to bind to the streptavidin surface for at least 1 hour before being washed once with 0.1% Tween20 in a Biotek ELx405 plate washer. The plates were then read in a PerkinElmer TopCount plate reader to measure the quantity of ^3H-labeled peptide bound to the Flashplate surface, measured as disintegrations per minute (dpm) or alternatively, referred to as counts per minute (cpm). […]
row,SMILES,pIC50
1,CNCC(O)COc1cccc(-c2cc(NC(=O)NC3CCOCC3)c3cnn(C(C)C)c3n2)c1 (stereo not shown) [Example 2-1],> 7.00
2,CC(C)n1ncc2c(N3CCOCC3)cc(-c3cccc(OCC(O)CN)c3)nc21 (stereo not shown) [Example 3-1],> 7.00
3,CNCC(O)COc1cccc(-c2cc(NC)c3cnn(C(C)C)c3n2)c1 (stereo not shown) [Example 5-1],6.00 to 7.00
4,CNCC(O)COc1cccc(-c2cc(NC3CC3)c3cnn(C(C)C)c3n2)c1 (stereo not shown) [Example 7-1],6.00 to 7.00
5,CNCC(O)COc1cccc(-c2cc(NCCN)c3cnn(C(C)C)c3n2)c1 (stereo not shown) [Example 9-1],6.00 to 7.00
6,COC(=O)Nc1cc(-c2cccc(OCC(O)CN)c2)nc2c1cnn2C(C)C (stereo not shown) [Example 10-1],6.00 to 7.00
7,CNCC(O)COc1cccc(-c2cc(NC(=O)NC)c3cnn(C(C)C)c3n2)c1 (stereo not shown) [Example 13-1],> 7.00
8,CC(C)n1ncc2c(NC(=O)N(C)C)cc(-c3cccc(OCC(O)CN)c3)nc21 (stereo not shown) [Example 14-1],6.00 to 7.00
9,CNCC(O)COc1cccc(-c2cc(NC(=O)OC)c3cnn(C(C)C)c3n2)c1 (stereo not shown) [Example 16-1],6.00 to 7.00
10,CCOC(=O)Nc1cc(-c2cccc(OCC(O)CN)c2)nc2c1cnn2C(C)C (stereo not shown) [Example 17-1],6.00 to 7.00
11,COC(=O)CNc1cc(-c2cccc(OCC(O)CN)c2)nc2c1cnn2C(C)C (stereo not shown) [Example 18-1],6.00 to 7.00
12,CC(C)n1ncc2c(NC3CCOCC3)cc(-c3cccc(OCC(O)CN)c3)nc21 (stereo not shown) [Example 19-1],6.00 to 7.00
13,CNCC(O)COc1cccc(-c2cc(NCC(=O)OC)c3cnn(C(C)C)c3n2)c1 (stereo not shown) [Example 23-1],6.00 to 7.00
14,CC(C)n1ncc2c(NCc3cccnc3)cc(-c3cccc(OCC(O)CN)c3)nc21 (stereo not shown) [Example 25-1],5.00 to 5.52
15,CC(C)n1ncc2c(NCc3ccncc3)cc(-c3cccc(OCC(O)CN)c3)nc21 (stereo not shown) [Example 26-1],> 7.00
16,CC(C)n1ncc2c(NCC3CCOCC3)cc(-c3cccc(OCC(O)CN)c3)nc21 (stereo not shown) [Example 30-1],> 7.00
17,CNCC(O)COc1cccc(-c2cc(N(C)c3ccccn3)c3cnn(C(C)C)c3n2)c1 (stereo not shown) [Example 33-1],6.00 to 7.00
18,CNCC(O)COc1cccc(-c2cc(NCc3ccccn3)c3cnn(C(C)C)c3n2)c1 (stereo not shown) [Example 34-1],6.00 to 7.00
19,CC(C)n1ncc2c(NCc3cccc(O)c3)cc(-c3cccc(OCC(O)CN)c3)nc21 (stereo not shown) [Example 35-1],6.00 to 7.00
20,Cc1c(CNc2cc(-c3cccc(OCC(O)CN)c3)nc3c2cnn3C(C)C)cnn1C (stereo not shown) [Example 37-1],5.00 to 5.52
21,CNCC(O)COc1cccc(-c2cc(NCC3CCOCC3)c3cnn(C(C)C)c3n2)c1 (stereo not shown) [Example 41-1],> 7.00
22,CNCC(O)COc1cccc(-c2cc(NCCCCCCN)c3cnn(C(C)C)c3n2)c1 (stereo not shown) [Example 43-1],6.00 to 7.00
23,CNCC(O)COc1cccc(-c2cc(N(C)Cc3ccccn3)c3cnn(C(C)C)c3n2)c1 (stereo not shown) [Example 44-1],6.00 to 7.00
24,CNCC(O)COc1cccc(-c2cc(NS(=O)(=O)N(C)C)c3cnn(C(C)C)c3n2)c1 (stereo not shown) [Example 45-1],> 7.00
25,CC(C)n1ncc2c(NC(=O)OCc3ccccc3)cc(-c3cccc(OCC(O)CN)c3)nc21 (stereo not shown) [Example 51-1],> 7.00
26,CNCC(O)COc1cccc(-c2cc(N3CCC(C(=O)OC)CC3)c3cnn(C(C)C)c3n2)c1 (stereo not shown) [Example 52-1],> 7.00
27,CNCC(O)COc1cccc(-c2cc(NCc3cnc4ccccn34)c3cnn(C(C)C)c3n2)c1 (stereo not shown) [Example 53-1],> 7.00
28,CNCC(O)COc1cccc(-c2cc(NC(=O)OCc3ccccc3)c3cnn(C(C)C)c3n2)c1 (stereo not shown) [Example 54-1],6.00 to 7.00

# Next, values leading:
row,pIC50,SMILES
1,5.52 to 6.00,CNCC(O)COc1cccc(-c2cc(N)c3cnn(C(C)C)c3n2)c1 (stereo not shown) [Example 4-1]
2,6.00 to 7.00,CC(C)n1ncc2c(NC3CC3)cc(-c3cccc(OCC(O)CN)c3)nc21 (stereo not shown) [Example 6-1]
3,6.00 to 7.00,CNC(=O)Nc1cc(-c2cccc(OCC(O)CN)c2)nc2c1cnn2C(C)C (stereo not shown) [Example 8-1]
4,6.00 to 7.00,CC(C)n1ncc2c(N3CCOCC3)cc(-c3cccc(OCC(O)CN)c3)nc21 (stereo not shown) [Example 11-1]
5,6.00 to 7.00,CC(C)n1ncc2c(N3CCOCC3)cc(-c3cccc(OC[C@@H](O)CN)c3)nc21 [Example 12-1]
6,6.00 to 7.00,CNCC(O)COc1cccc(-c2cc(NCCCN)c3cnn(C(C)C)c3n2)c1 (stereo not shown) [Example 15-1]
7,> 7.00,CNCC(O)COc1cccc(-c2cc(N3CCOCC3)c3cnn(C(C)C)c3n2)c1 (stereo not shown) [Example 20-1]
8,6.00 to 7.00,CNCC(O)COc1cccc(-c2cc(NC(=O)N(C)C)c3cnn(C(C)C)c3n2)c1 (stereo not shown) [Example 21-1]
9,> 7.00,CNCC(O)COc1cccc(-c2cc(NCCCCN)c3cnn(C(C)C)c3n2)c1 (stereo not shown) [Example 22-1]
10,6.00 to 7.00,CNCC(O)COc1cccc(-c2cc(Nc3ccccn3)c3cnn(C(C)C)c3n2)c1 (stereo not shown) [Example 24-1]
11,> 7.00,CNCC(O)COc1cccc(-c2cc(NCc3nnn[nH]3)c3cnn(C(C)C)c3n2)c1 (stereo not shown) [Example 27-1]
12,6.00 to 7.00,CC(C)n1ncc2c(N(C)C3CCOCC3)cc(-c3cccc(OCC(O)CN)c3)nc21 (stereo not shown) [Example 28-1]
13,5.00 to 5.52,CNCC(O)COc1cccc(-c2cc(NC3CCOCC3)c3cnn(C(C)C)c3n2)c1 (stereo not shown) [Example 29-1]
14,> 7.00,CCNCC(O)COc1cccc(-c2cc(N3CCOCC3)c3cnn(C(C)C)c3n2)c1 (stereo not shown) [Example 31-1]
15,> 7.00,CNCC(O)COc1cccc(-c2cc(NCCCCCN)c3cnn(C(C)C)c3n2)c1 (stereo not shown) [Example 32-1]
16,> 7.00,CC(C)n1ncc2c(NS(=O)(=O)N(C)C)cc(-c3cccc(OCC(O)CN)c3)nc21 (stereo not shown) [Example 36-1]
17,> 7.00,CC(C)n1ncc2c(N[C@H]3CO[C@@H]4OCC[C@@H]43)cc(-c3cccc(OCC(O)CN)c3)nc21 (stereo partly shown) [Example 38-1]
18,6.00 to 7.00,CNCC(O)COc1cccc(-c2cc(N(C)C3CCOCC3)c3cnn(C(C)C)c3n2)c1 (stereo not shown) [Example 40-1]
19,> 7.00,CC(C)n1ncc2c(N(C)CC3CCOCC3)cc(-c3cccc(OCC(O)CN)c3)nc21 (stereo not shown) [Example 42-1]
20,> 7.00,CNCC(O)COc1cccc(-c2cc(NCc3cnn(C)c3C)c3cnn(C(C)C)c3n2)c1 (stereo not shown) [Example 46-1]
21,6.00 to 7.00,CNCC(O)COc1cccc(-c2cc(N[C@H]3CO[C@@H]4OCC[C@@H]43)c3cnn(C(C)C)c3n2)c1 (stereo partly shown) [Example 47-1]
22,> 7.00,CNCC(O)COc1cccc(-c2cc(N(C)CC3CCOCC3)c3cnn(C(C)C)c3n2)c1 (stereo not shown) [Example 48-1]
23,6.00 to 7.00,CC(C)n1ncc2c(NC(=O)NC3CCOCC3)cc(-c3cccc(OCC(O)CN)c3)nc21 (stereo not shown) [Example 49-1]
24,> 7.00,CC(C)n1ncc2c(NCc3cnc4ccccn34)cc(-c3cccc(OCC(O)CN)c3)nc21 (stereo not shown) [Example 50-1]

# Reference: patent US9718816B2, “1-phenoxy-3-(alkylamino)-propan-2-ol derivatives as CARM1 inhibitors and uses thereof” (Epizyme, Inc., priority 2013, dated 2017)
